# In the Kinase Knowledgebase extract (Sharma et al. 2016):
# Molecular target: MAPK14 (UniProt Q16539)
# Assay: p38-alpha Inhibition
# Conditions: not given
# Chain of MAPK14 (Q16539 whole entry, looked up): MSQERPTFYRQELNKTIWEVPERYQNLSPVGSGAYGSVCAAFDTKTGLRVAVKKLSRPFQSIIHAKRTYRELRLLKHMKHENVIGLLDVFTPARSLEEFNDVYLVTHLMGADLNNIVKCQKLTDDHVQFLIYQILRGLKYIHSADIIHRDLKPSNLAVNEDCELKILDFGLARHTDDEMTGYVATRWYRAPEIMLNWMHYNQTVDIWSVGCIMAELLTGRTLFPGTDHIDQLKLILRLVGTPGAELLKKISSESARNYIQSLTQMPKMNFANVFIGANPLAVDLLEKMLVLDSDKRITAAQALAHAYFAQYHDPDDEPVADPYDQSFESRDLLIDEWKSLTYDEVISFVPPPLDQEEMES
row,IC50 [nM],SMILES
1,800,Fc1ccc(-c2nc(Nc3ccncc3)c3ccccc3n2)cc1
2,800,c1ccc(-c2nc(Nc3ccncc3)c3ccccc3n2)cc1
3,800,c1ccc(-c2nc(NCc3ccncc3)c3ccccc3n2)cc1
4,800,Nc1ccc2nc(-c3ccccc3F)nc(Nc3ccncc3)c2c1
5,800,Cc1ccccc1-c1nc(Nc2ccncc2)c2ccccc2n1
6,800,COc1cccc(Nc2nc(-c3ccccc3)nc3ccccc23)c1
7,800,Brc1ccccc1-c1nc(Nc2ccncc2)c2ccccc2n1
8,800,Clc1ccccc1-c1nc(Nc2ccncc2)c2ccccc2n1
9,800,Fc1ccccc1-c1nc(Nc2ccncc2)c2ccccc2n1

# Same assay, conditions: concentration not given here
row,inhibition [%],SMILES
1,> 90,CSc1ccc(CNc2ccc3nc(-c4ccccc4F)nc(Nc4ccncc4)c3c2)cc1
2,> 90,Nc1ccc2c(Nc3ccncc3)nc(-c3ccccc3F)nc2c1
3,> 90,COc1ccc(C(=O)Nc2ccc3nc(-c4ccccc4F)nc(Nc4ccncc4)c3c2)cc1
4,> 90,CC(C)CNc1ccc2nc(-c3ccccc3F)nc(Nc3ccncc3)c2c1
5,> 90,Nc1ccc2c(Nc3ccncc3)nc(-c3ccc(F)cc3)nc2c1
6,> 90,Nc1ccc2nc(-c3ccccc3F)nc(Nc3ccncc3)c2c1
7,> 90,O=[N+]([O-])c1ccc2nc(-c3ccccc3F)nc(Nc3ccncc3)c2c1
8,> 90,COc1cccc(CNc2ccc3c(Nc4ccncc4)nc(-c4ccc(F)cc4)nc3c2)c1
9,> 90,COc1cccc(CNc2ccc3nc(-c4ccccc4F)nc(Nc4ccncc4)c3c2)c1
10,> 90,COc1cc2nc(-c3ccccc3Cl)nc(Nc3ccncc3)c2cc1OC
11,> 90,COc1ccc(CNc2ccc3nc(-c4ccccc4F)nc(Nc4ccncc4)c3c2)cc1
